Reference: patent publication US12012417B2, “N-substituted tetrahydrothienopyridine derivatives and uses thereof” (NOVARTIS AG, priority 2018, dated 2024)
Counter-ions that a name gives are not always drawn.

Legend:
[1] = system: Dengue 3 virus MY05-34640-WT-C6/36; assay: High-content imaging cell-based flavivirus immunodetection (HCl-CFI) assay, Dengue 3; details: Dengue virus, A549, 48 h, read-out: Dengue 3 virus MY05-34640-WT-C6/36 in A549 using HCl [Inhibitor/IC50] Qualified AC50
[2] = system: Dengue 4 virus MY01-22713; assay: High-content imaging cell-based flavivirus immunodetection (HCl-CFI) assay, Dengue 4; details: Dengue virus, A549, 48 h, read-out: Dengue 4 virus MY01-22713 in A549 using HCl [Inhibitor/IC50] Qualified AC50, A549 cells, 48 h, viral E protein expression
[3] = system: Dengue 2 virus MY97-10340; assay: High-content imaging cell-based flavivirus immunodetection (HCl-CFI) assay, Dengue 2; details: Dengue virus, A549, 48 h, read-out: Dengue 2 virus MY97-10340 in A549 using HCl [Inhibitor/IC50] Qualified AC50, A549 cells, MOI 0.3, 48 h, viral E protein expression
Outline: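 A549 cells infected at MOI 0.3, treated with 3-fold, 10-point compound dilutions for 48 h. After paraformaldehyde fixation, viral E protein immunostained with 4G2 antibody and nuclei counterstained; imaged by high-content imaging. EC50 = concentration reducing E protein expression by 50%, from dose-response curves.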

[4] = system: Dengue 1 virus MY97-10245; assay: High-content imaging cell-based flavivirus immunodetection (HCl-CFI) assay, Dengue 1; details: Dengue virus, A549, 48 h, read-out: Dengue 1 virus MY97-10245 in A549 using HCl [Inhibitor/IC50] Qualified AC50

Row | Compound | EC50 [1] [nM] | EC50 [2] [nM] | EC50 [3] [nM] | EC50 [4] [nM]
1 | CC1Cc2sc(NC(=O)Cc3ccc(S(=O)(=O)NCC4CC(F)(F)C4)cc3)c(C#N)c2CN1CC1CC(F)(F)C1 (stereo not shown) [Example 57, N-(3-cyano-5-((3,3-difluorocyclobutyl)methyl)-6-methyl-4,5,6,7-tetrahydrothieno[3,2-c]pyridin-2-yl)-2-(4-(N-((3,3-difluorocyclobutyl)methyl)sulfamoyl)phenyl)acetamide] | > 1000 | 100 to 1000 | 100 to 1000 | > 1000
2 | CC1Cc2sc(NC(=O)Cc3ccc(C(N)=O)cc3)c(C#N)c2CN1Cc1cccc(F)c1 (stereo not shown) [Example 58, 4-(2-((3-cyano-5-(3-fluorobenzyl)-6-methyl-4,5,6,7-tetrahydrothieno[3,2-c]pyridin-2-yl)amino)-2-oxoethyl)benzamide] | < 100 | < 100 | < 100 | 100 to 1000
3 | CC1Cc2sc(NC(=O)Cc3ccc(S(N)(=O)=O)cc3)c(C#N)c2CN1CC1CCCC1 (stereo not shown) [Example 59, N-(3-cyano-5-(cyclopentylmethyl)-6-methyl-4,5,6,7-tetrahydrothieno[3,2-c]pyridin-2-yl)-2-(4-sulfamoylphenyl)acetamide hydrochloride] | 100 to 1000 | 100 to 1000 | 100 to 1000 | > 1000
4 | CC1Cc2sc(NC(=O)Cc3ccc(S(N)(=O)=O)cc3)c(C#N)c2CN1CC1CCC1 (stereo not shown) [Example 60, N-(3-cyano-5-(cyclobutylmethyl)-6-methyl-4,5,6,7-tetrahydrothieno[3,2-c]pyridin-2-yl)-2-(4-sulfamoylphenyl)acetamide] | 100 to 1000 | 100 to 1000 | 100 to 1000 | > 1000
5 | CC1Cc2sc(NC(=O)Cc3ccc(S(=O)(=O)NCC4CCCC4)cc3)c(C#N)c2CN1CC1CCCC1 (stereo not shown) [Example 61, N-(3-cyano-5-(cyclopentylmethyl)-6-methyl-4,5,6,7-tetrahydrothieno[3,2-c]pyridin-2-yl)-2-(4-(N-(cyclopentylmethyl)sulfamoyl)phenyl)acetamide] | > 1000 | > 1000 | 100 to 1000 | > 1000
6 | CC1Cc2sc(NC(=O)Cc3ccc(S(N)(=O)=O)cc3)c(C#N)c2CN1CC1CCCCC1 (stereo not shown) [Example 62, N-(3-cyano-5-(cyclohexylmethyl)-6-methyl-4,5,6,7-tetrahydrothieno[3,2-c]pyridin-2-yl)-2-(4-sulfamoylphenyl)acetamide] | < 100 | < 100 | < 100 | 100 to 1000
7 | CC1Cc2sc(NC(=O)Cc3ccc(S(=O)(=O)NCC4CCCCC4)cc3)c(C#N)c2CN1CC1CCCCC1 (stereo not shown) [Example 63, N-(3-cyano-5-(cyclohexylmethyl)-6-methyl-4,5,6,7-tetrahydrothieno[3,2-c]pyridin-2-yl)-2-(4-(N-(cyclohexylmethyl)sulfamoyl)phenyl)acetamide] | 100 to 1000 | 100 to 1000 | 100 to 1000 | > 1000
8 | CC1Cc2sc(NC(=O)Cc3ccc(S(N)(=O)=O)cc3)c(C#N)c2CN1Cc1cc(Cl)ccc1Cl (stereo not shown) [Example 64, N-(3-cyano-5-(2,5-dichlorobenzyl)-6-methyl-4,5,6,7-tetrahydrothieno[3,2-c]pyridin-2-yl)-2-(4-sulfamoylphenyl)acetamide] | < 100 | < 100 | < 100 | < 100
9 | CC1Cc2sc(NC(=O)Cc3ccc(S(N)(=O)=O)cc3)c(C#N)c2CN1CCc1ccccc1 (stereo not shown) [Example 67, N-(3-cyano-6-methyl-5-phenethyl-4,5,6,7-tetrahydrothieno[3,2-c]pyridin-2-yl)-2-(4-sulfamoylphenyl)acetamide] | < 100 | < 100 | < 100 | > 1000
10 | CC1Cc2sc(NC(=O)Cc3ccc(S(N)(=O)=O)cc3)c(C#N)c2CN1CCC1CCCCC1 (stereo not shown) [Example 68, N-(3-cyano-5-(2-cyclohexylethyl)-6-methyl-4,5,6,7-tetrahydrothieno[3,2-c]pyridin-2-yl)-2-(4-sulfamoylphenyl)acetamide] | < 100 | < 100 | < 100 | 100 to 1000
11 | CC1Cc2sc(NC(=O)Cc3ccc(S(C)(=O)=O)cc3)c(C#N)c2CN1Cc1cccc(F)c1 (stereo not shown) [Example 69, N-(3-cyano-5-(3-fluorobenzyl)-6-methyl-4,5,6,7-tetrahydrothieno[3,2-c]pyridin-2-yl)-2-(4-(methylsulfonyl)phenyl)acetamide] | < 100 | < 100 | < 100 | 100 to 1000
12 | CC1Cc2sc(NC(=O)Cc3ccc(S(C)(=O)=O)cc3)c(C#N)c2CN1Cc1cc(Cl)ccc1Cl (stereo not shown) [Example 70, N-(3-cyano-5-(2,5-dichlorobenzyl)-6-methyl-4,5,6,7-tetrahydrothieno[3,2-c]pyridin-2-yl)-2-(4-(methylsulfonyl)phenyl)acetamide] | < 100 | < 100 | < 100 | 100 to 1000
13 | CC1(C)CS(=O)(=O)c2ccc(CC(=O)Nc3sc4c(c3C#N)CN(CC3CCCCC3)C(C)(C)C4)cc21 [Example 72, N-(3-cyano-5-(cyclohexylmethyl)-6,6-dimethyl-4,5,6,7-tetrahydrothieno[3,2-c]pyridin-2-yl)-2-(3,3-dimethyl-1,1-dioxido-2,3-dihydrobenzo[b]thiophen-5-yl)acetamide] | < 100 | < 100 | < 100 | < 100
14 | CC1(C)Cc2sc(NC(=O)Cc3ccccc3)c(C#N)c2CN1CC1CCCCC1 [Example 73, N-(3-cyano-5-(cyclohexylmethyl)-6,6-dimethyl-4,5,6,7-tetrahydrothieno[3,2-c]pyridin-2-yl)-2-phenylacetamide] | 100 to 1000 | 100 to 1000 | 100 to 1000 | 100 to 1000
15 | CC1(C)Cc2sc(NC(=O)Cc3ccc4c(c3)C(CN)CS4(=O)=O)c(C#N)c2CN1CC1CCCCC1 (stereo not shown) [Example 74, 2-(3-(aminomethyl)-1,1-dioxido-2,3-dihydrobenzo[b]thiophen-5-yl)-N-(3-cyano-5-(cyclohexylmethyl)-6,6-dimethyl-4,5,6,7-tetrahydrothieno[3,2-c]pyridin-2-yl)acetamide] | 100 to 1000 | 100 to 1000 | 100 to 1000 | 100 to 1000
16 | CN(C(=O)Cc1ccc(S(N)(=O)=O)cc1)c1sc2c(c1C#N)CN(CC1CCCCC1)C(C)(C)C2 [Example 75, N-(3-cyano-5-(cyclohexylmethyl)-6,6-dimethyl-4,5,6,7-tetrahydrothieno[3,2-c]pyridin-2-yl)-N-methyl-2-(4-sulfamoylphenyl)acetamide] | > 1000 | > 1000 | > 1000 | > 1000
17 | CCC1(CC)Cc2sc(NC(=O)Cc3ccc(S(N)(=O)=O)cc3)c(C#N)c2CN1CC1CCCCC1 [Example 76, N-(3-cyano-5-(cyclohexylmethyl)-6,6-diethyl-4,5,6,7-tetrahydrothieno[3,2-c]pyridin-2-yl)-2-(4-sulfamoylphenyl)acetamide] | < 100 | < 100 | < 100 | < 100
18 | CCOc1cc(CC(=O)Nc2sc3c(c2C#N)CN(CC2CC(F)(F)C2)C(C)(C)C3)ccc1S(N)(=O)=O [Example 78, N-(3-cyano-5-((3,3-difluorocyclobutyl)methyl)-6,6-dimethyl-4,5,6,7-tetrahydrothieno[3,2-c]pyridin-2-yl)-2-(3-ethoxy-4-sulfamoylphenyl)acetamide] | < 100 | < 100 | < 100 | 100 to 1000
19 | CCC1(CC)Cc2sc(NC(=O)Cc3ccc(S(N)(=O)=O)cc3)c(C#N)c2CN1CC1CC(F)(F)C1 [Example 79, N-(3-cyano-5-((3,3-difluorocyclobutyl)methyl)-6,6-diethyl-4,5,6,7-tetrahydrothieno[3,2-c]pyridin-2-yl)-2-(4-sulfamoylphenyl)acetamide] | < 100 | < 100 | < 100 | < 100
20 | CC1(C)CS(=O)(=O)c2ccc(CC(=O)Nc3sc4c(c3C#N)CN(Cc3cccc(F)c3)C(C)(C)C4)cc21 [Example 80, N-(3-cyano-5-(3-fluorobenzyl)-6,6-dimethyl-4,5,6,7-tetrahydrothieno[3,2-c]pyridin-2-yl)-2-(3,3-dimethyl-1,1-dioxido-2,3-dihydrobenzo[b]thiophen-5-yl)acetamide] | < 100 | < 100 | < 100 | 100 to 1000
21 | CC1(C)Cc2sc(NC(=O)Cc3ccc(S(N)(=O)=O)cc3)c(C#N)c2CN1Cc1cccc(F)c1 [Example 81, N-(3-cyano-5-(3-fluorobenzyl)-6,6-dimethyl-4,5,6,7-tetrahydrothieno[3,2-c]pyridin-2-yl)-2-(4-sulfamoylphenyl)acetamide] | < 100 | < 100 | < 100 | 100 to 1000
22 | COc1cc(CC(=O)Nc2sc3c(c2C#N)CN(CC2CCCCC2)C(C)(C)C3)ccc1S(N)(=O)=O [Example 82, N-(3-cyano-5-(cyclohexylmethyl)-6,6-dimethyl-4,5,6,7-tetrahydrothieno[3,2-c]pyridin-2-yl)-2-(3-methoxy-4-sulfamoylphenyl)acetamide] | < 100 | < 100 | < 100 | < 100
